These results are taken from US6936636B2, “5-[phenyl-tetrahydronaphthalene-2-yl dihydronaphthalen-2-yl and heteroaryl-cyclopropyl]-pentadienoic acid derivatives having serum glucose reducing activity” (Allergan, Inc., priority 2003, dated 2005).

The test system of series [1] is female diabetic db/db mice. Description: serum glucose, triglyceride and thyroxine levels in diabetic db/db mice. Format: in vivo. The conditions noted are these: for Glucose / Triglycerides / T4: db/db mice; for T4: Day 7. From the text: An assay described below tests the effect of compounds of the invention on serum glucose, tryglyceride and thyroxine levels in female 9-10 weeks old db/db mice.
Female diabetic db/db (9-10 weeks old) mice were maintained on standard laboratory food and treated by oral gavage with vehicle (corn oil), standard compound (2E, 4E, 1′S, 2S)-3-methyl-5-[2′-methyl-2′-(5,5,8,8-tetramethyl-5,6,7,8-tetrahydro-naphthalen-2-yl)-cyclopropyl]-penta-2,4-dienoic acid ([…]) daily for seven days at 8:00 AM. Blood samples (70 μl) were taken by orbital bleeding at 11:00 AM on day 0 (pre-treatment), day 3, and day 6. On day 7, a blood sample (700 μl) was taken at 11:00 AM and the animals were sacrificed. Glucose, triglyceride and thyroxine (T4) levels were determined on a Boehringer Manheim Hatachi Clinical Chemistry Analyzer using standard protocols provided by the manufacturer and reagents that were supplied in commercially available kits (glucose and T4: Boehringer Manheim; triglycerides: Roche Diagnostics). Seven animals were treated in each group.

Series [2] addresses T1, RXRβ (Homo sapiens, UniProt P28702).
T1 construct: expressed in transfected cells
T1 sequence (P28702 1-533): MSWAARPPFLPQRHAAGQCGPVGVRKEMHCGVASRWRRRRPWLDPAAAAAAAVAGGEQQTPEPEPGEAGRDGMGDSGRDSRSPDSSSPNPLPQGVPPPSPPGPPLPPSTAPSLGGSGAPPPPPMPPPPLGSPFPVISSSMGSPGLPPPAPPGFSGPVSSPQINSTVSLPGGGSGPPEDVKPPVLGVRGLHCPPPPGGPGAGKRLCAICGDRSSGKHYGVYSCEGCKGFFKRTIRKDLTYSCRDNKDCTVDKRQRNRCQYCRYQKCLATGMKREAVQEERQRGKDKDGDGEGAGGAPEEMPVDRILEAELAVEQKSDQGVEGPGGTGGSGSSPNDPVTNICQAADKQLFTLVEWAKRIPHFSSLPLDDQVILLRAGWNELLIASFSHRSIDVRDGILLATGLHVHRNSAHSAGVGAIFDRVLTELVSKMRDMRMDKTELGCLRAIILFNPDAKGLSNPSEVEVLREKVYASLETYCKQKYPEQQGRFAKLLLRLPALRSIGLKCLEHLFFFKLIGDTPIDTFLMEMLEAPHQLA
Description: RXR ligand binding assay. The source says: (§1) A holoreceptor transactivation assay and a ligand binding assay which measure the antagonist/agonist like activity of the compounds of the invention, or their ability to bind to the several retinoid receptor subtypes, respectively, are described in published PCT Application No. WO WO93/11755 (particularly on pages 30-33 and 37-41) published on Jun. 24, 1993, the specification of which is also incorporated herein by reference. A detailed experimental procedure for holoreceptor transactivations has been described by Heyman et al. Cell 68, 397-406, (1992); Allegretto et al. J. Biol. Chem. 268, 26625-26633, and Mangelsdorf et al. The Retinoids: Biology, Chemistry and Medicine, pp 319-349, Raven Press Ltd., New York, which are expressly incorporated herein by reference. The results obtained in this assay are expressed in EC50 numbers, as they are also in the, chimeric receptor transactivation assay. The results of the ligand binding assay are expressed in Ki numbers. (See Cheng et al. Biochemical Pharmacology Vol. 22 pp 3099-3108, expressly incorporated herein by reference.)
(§2) In Tables 1 and 2 the binding Ki numbers are indicated in the first 3 columns. In the second set of three columns the numbers in parentheses indicate efficacy as a percentage compared to the standard compound, (2E, 4E, 1′S, 2′S)-3-methyl-5-[2′-methyl-2′-(5,5,8,8-tetramethyl-5,6,7,8-tetrahydro-naphthalen-2-yl)-cyclopropyl]-penta-2,4-dienoic acid and the other numbers indicate the measured EC50 in nanomolar concentration.

Series [3] deals with T2, RXRα (Homo sapiens, UniProt P19793).
T2 construct: expressed in transfected cells
T2 sequence (P19793 1-462): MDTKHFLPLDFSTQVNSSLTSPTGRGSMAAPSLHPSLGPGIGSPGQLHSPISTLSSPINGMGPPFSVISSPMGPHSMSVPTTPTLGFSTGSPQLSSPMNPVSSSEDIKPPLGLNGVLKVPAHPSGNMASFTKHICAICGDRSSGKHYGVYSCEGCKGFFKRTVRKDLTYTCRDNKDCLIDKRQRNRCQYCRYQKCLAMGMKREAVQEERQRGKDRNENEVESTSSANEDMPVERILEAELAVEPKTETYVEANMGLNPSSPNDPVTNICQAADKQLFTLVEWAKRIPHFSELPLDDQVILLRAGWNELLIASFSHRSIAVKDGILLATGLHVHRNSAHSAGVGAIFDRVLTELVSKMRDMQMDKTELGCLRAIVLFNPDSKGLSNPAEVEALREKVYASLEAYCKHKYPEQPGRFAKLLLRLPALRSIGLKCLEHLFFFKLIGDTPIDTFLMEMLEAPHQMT
Description: RXR ligand binding assay.
Description: as §1, §2

Series [4] has as its target T1, RXRβ. Nature of the series: holoreceptor transactivation assay. Type of series: cell-based. Conditions: for Transactivation % Efficiency RXRβ: efficacy as percentage compared to the standard compound; for EC50: holoreceptor assay.
Description: as §1
(§3) Efficacy in a transactivation assay is expressed as a percentage of the maximum potency attained by the compound compared to a standard which, in this, case, is the compound named (2E, 4E, 1′S, 2′S)-3-methyl-5-[2′-methyl-2′-(5,5,8,8-tetramethyl-5,6,7,8-tetrahydro-naphthalen-2-yl)-cyclopropyl]-penta-2,4-dienoic acid. This standard compound is described in U.S. Pat. No. 6,114,533.
(§4) Table 1 discloses the activity of certain exemplary tetrahydronaphthale compounds of the invention in the above-described RXR receptor transactivation and binding assays. […] The transactivation data pertaining to the activation of RXR receptors were obtained in the holoreceptor assay.
as §2

A further series has as its target T3, RXRγ (Homo sapiens, UniProt P48443).
T3 construct: expressed in transfected cells
T3 sequence (P48443 1-463): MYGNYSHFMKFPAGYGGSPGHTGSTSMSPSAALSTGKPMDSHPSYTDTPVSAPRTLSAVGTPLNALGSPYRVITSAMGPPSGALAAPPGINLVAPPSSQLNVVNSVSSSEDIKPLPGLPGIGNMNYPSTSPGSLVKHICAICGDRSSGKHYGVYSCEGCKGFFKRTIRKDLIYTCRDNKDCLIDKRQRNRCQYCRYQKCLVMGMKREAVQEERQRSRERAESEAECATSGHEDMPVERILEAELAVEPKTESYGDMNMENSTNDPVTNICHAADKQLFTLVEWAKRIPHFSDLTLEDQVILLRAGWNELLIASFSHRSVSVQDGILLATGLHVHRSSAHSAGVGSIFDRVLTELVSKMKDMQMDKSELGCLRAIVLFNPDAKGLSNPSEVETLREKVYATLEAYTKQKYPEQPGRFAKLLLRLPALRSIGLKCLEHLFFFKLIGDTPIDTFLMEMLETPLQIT
Nature of the series: holoreceptor transactivation assay. Type of series: cell-based. Conditions: for Transactivation % Efficiency RXRγ: efficacy as percentage compared to the standard compound; for EC50: holoreceptor assay.
Description: as §1, §3, §4, §2

Series [5] has as its target T2, RXRα. Description: holoreceptor transactivation assay. Type of series: cell-based. Conditions: for Transactivation % Efficiency RXRα: efficacy as percentage compared to the standard compound; for EC50: holoreceptor assay.
Description: as §1, §3, §4, §2

Where [6] appears, read: Day 0 (pre-treatment), 50 mg/kg oral gavage daily.
The mark [7] stands for this setting: Day 3, 3 h, 50 mg/kg oral gavage daily.
Setting [8] is: Day 6, 3 h, 50 mg/kg oral gavage daily.
The mark [9] stands for this setting: Day 0 (pre-treatment), 4 mg/kg oral gavage daily.
The mark [10] stands for this setting: Day 3, 3 h, 4 mg/kg oral gavage daily.
Where [11] appears, read: Day 6, 3 h, 4 mg/kg oral gavage daily.

A word on the Ki: it is the dissociation constant of the complex between target and ligand, obtained from inhibition or displacement. A lower Ki goes with tighter binding. The EC50 is the concentration at which the effect is half-maximal. High values mean lower potency in that assay, low ones higher potency in that assay. Turning to `COC[C@H]1[C@@H](/C=C/C(C)=C/C(=O)O)[C@@]1(C)c1ccc2c(c1)C(C)(C)CCC2(C)C` (stereo in doubt) [Compound 21a, (−)-(1R, 2S, 3 S)-5-[3-Methoxymethyl-2-methyl-2-(5,5,8,8-tetramethyl-5,6,7,8-tetrahydro-naphthalen-2-yl)-cyclopropyl]-3-methyl-penta-2E,4E-dienoic acid], the results for the Glucose in series [1] (setting [6]), in series [1] (setting [7]) and in series [1] (setting [8]) were 445 ± 66 mg/dL, 339 ± 194 mg/dL and 314 ± 196 mg/dL, respectively. In addition, the Triglycerides stood at 271 ± 80 mg/dL in series [1] (setting [6]), 130 ± 71 mg/dL in series [1] (setting [7]) and 180 ± 63 mg/dL in series [1] (setting [8]). Also, in series [1] (50 mg/kg oral gavage daily), the T4 was 4.2 ± 0.3 µg/dL. The Ki turned out to be 48 nM on RXRβ [2] and 5 nM on RXRα [3]. Besides, at RXRβ [4], the “Transactivation % Efficiency RXRβ” value is 38%. The EC50 is 36 nM on RXRβ [4], 6 nM on RXRγ and 4 nM on RXRα [5]. Also, at RXRγ, the “Transactivation % Efficiency RXRγ” value stood at 41%. Moreover, the “Transactivation % Efficiency RXRα” value on RXRα [5] is 39%.
Take `CCOC[C@H]1[C@@H](/C=C/C(C)=C/C(=O)O)C1(C)c1ccc2c(c1)C(C)(C)CCC2(C)C` (stereo in doubt) [Compound 21b, (−)-(1R, 2S, 3S)-5-[3-Ethoxymethyl-2-methyl-2-(5,5,8,8-tetramethyl-5,6,7,8-tetrahydro-naphthalen-2-yl)-cyclopropyl]-3-methyl-penta-2E,4E-dienoic acid]: the Ki on RXRβ [2] came to 227 nM; on RXRα [3], 17 nM. Moreover, the values for the EC50 at RXRβ [4], at RXRγ and at RXRα [5] were over 1000 nM, 44 nM and 28 nM, respectively. Moreover, the “Transactivation % Efficiency RXRγ” value at RXRγ stood at 34%. Moreover, the “Transactivation % Efficiency RXRα” value on RXRα [5] is given as 41%.
The molecule `COC[C@@H]1[C@@H](/C=C/C(C)=C/C(=O)O)C1(C)c1ccc2c(c1)C(C)(C)CCC2(C)C` (stereo in doubt) [Compound 23a, (−)-(1R, 2S, 3R)-5-[3-Methoxymethyl-2-methyl-2-(5,5,8,8-tetramethyl-5,6,7,8-tetrahydro-naphthalen-2-yl)-cyclopropyl]-3-methyl-penta-2E,4E-dienoic acid] came in with a Ki at RXRβ [2] of 188 nM. The molecule further came in with a Ki on RXRα [3] of 18 nM. Also, on RXRβ [4], the “Transactivation % Efficiency RXRβ” value is on record as 9% and the EC50 was found to be 546 nM. On RXRγ, the “Transactivation % Efficiency RXRγ” value was determined as 9% and the EC50 came out at 60 nM. At RXRα [5], the “Transactivation % Efficiency RXRα” value came to 9% and it took 27 nM to reach a half-maximal effect (EC50).
As for `CCOC[C@@H]1[C@@H](/C=C/C(C)=C/C(=O)O)C1(C)c1ccc2c(c1)C(C)(C)CCC2(C)C` (stereo in doubt) [Compound 23b, (−)-(1R, 2S, 3R)-5-[3-Ethoxymethyl-2-methyl-2-(5,5,8,8-tetramethyl-5,6,7,8-tetrahydro-naphthalen-2-yl)-cyclopropyl]-3-methyl-penta-2E,4E-dienoic acid], the values for the Ki at RXRβ [2] and at RXRα [3] were 121 nM and 27 nM, respectively.
At RXRβ [2], `COCC1[C@@H](/C=C/C(C)=C/C(=O)O)C1(C)c1cc(C(C)C)cc(C(C)C)c1` (stereo in doubt) [Compound 29, (−)-(1R, 2S, 3S)-5-[3-Methoxymethyl-2-methyl-2-(3,5-diisopropyl-phenyl)-cyclopropyl]-3-methyl-penta-2E,4E-dienoic acid] returned a Ki of 49 nM. Besides, the affinity at RXRα [3], expressed as Ki, was 11 nM. Also, at RXRβ [4], the “Transactivation % Efficiency RXRβ” value is listed as 34% and the EC50 is 47 nM. Further, on RXRγ, the “Transactivation % Efficiency RXRγ” value amounted to 35% and the EC50 turned out to be 16 nM. Moreover, on RXRα [5], the “Transactivation % Efficiency RXRα” value turned out to be 24% and the response was half-maximal at 5 nM (EC50).
For `COCC1[C@@H](/C=C/C(C)=C/C(=O)O)C1(C)c1cc(C(C)C)cc(C(C)C)c1` (stereo in doubt) [Compound 31a, (−)-(1R, 2S, 3R)-5-[3-Methoxymethyl-2-methyl-2-(3,5-diisopropyl-phenyl)-cyclopropyl]-3-methyl-penta-2E,4E-dienoic acid], on RXRβ [2], the Ki was determined as 25 nM. Further, the Ki on RXRα [3] came out at 7.6 nM. For the same molecule, on RXRβ [4], the “Transactivation % Efficiency RXRβ” value was 90% and the half-maximal effective concentration (EC50) worked out at 17 nM. Further, on RXRγ, the “Transactivation % Efficiency RXRγ” value stood at 101% and the EC50 stood at 3.6 nM. In addition, on RXRα [5], the “Transactivation % Efficiency RXRα” value is 104% and it took 2.7 nM to reach a half-maximal effect (EC50).
`CC(/C=C/[C@@H]1C[C@]1(C)c1ccc2c(c1)C(C)(C)CCC2(C)C)=C\C(=O)O` [Standard compound, (2E, 4E, 1′S, 2′S)-3-methyl-5-[2′-methyl-2′-(5,5,8,8-tetramethyl-5,6,7,8-tetrahydro-naphthalen-2-yl)-cyclopropyl]-penta-2,4-dienoic acid]: the Glucose in series [1] (setting [9]) worked out at 423 ± 57 mg/dL; in series [1] (setting [10]) it was 315 ± 105 mg/dL; in series [1] (setting [11]) it was 268 ± 242 mg/dL. The Triglycerides in series [1] (setting [9]) came to 300 ± 76 mg/dL; in series [1] (setting [10]) it was 219 ± 80 mg/dL; in series [1] (setting [11]), 117 ± 22 mg/dL. For the same molecule, the T4 in series [1] (4 mg/kg oral gavage daily) came out at 1.1 ± 0.2 µg/dL. Further, the “effect on serum thyroxine levels (in words)” value in series [1] (diabetic mammals) is listed as “undesirable side effect of reducing serum thyroxine levels”.
